# In US20260109707A1, “HETEROBIFUNCTIONAL COMPOUNDS AND METHODS OF TREATING DISEASE” (Halda Therapeutics OpCo. Inc., priority 2022, published 2026):
# pKd: −log10 of the molar value.
# How the values were obtained:
# [1] = system: T-Rex 293 cell line SC3 cells lacking increased expression of androgen receptor protein; test: Cellular growth inhibition assay, T-Rex 293 SC3 cells without doxycycline (CellTiter-Glo, 72 hours); type: cell-based; settings: 72 h, T-Rex 293 cell line SC3 cells not exposed to doxycycline (lacking increased androgen receptor expression)
# Method in brief: (§1)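 Doxycycline (10 ng/mL) was either included or omitted to toggle wild-type androgen receptor expression in SC3 cells, a T-Rex 293 clone, grown in stripped-serum, phenol red-free medium. After 72 hours with compound, viable cells were quantified by CellTiter-Glo 2.0.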
# T47D cells = test: Cellular growth inhibition assay for T47D cells (CellTiter-Glo, 72 hours); type: cell-based, human; settings: Homo sapiens, T47D, 72 h, 72 hours treatment
# Method in brief: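 Growth inhibition as GI50, fitted with four parameters to CellTiter-Glo luminescence after 72 h of compound exposure (0.5% DMSO). Cells were T47D, grown in insulin-supplemented (0.2 units/mL) DMEM with 10% FBS and treated one day post-seeding.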
# [2] = system: T-Rex 293 cell line SC cells lacking increased expression of progesterone receptor isoform B protein; test: Cellular growth inhibition assay, T-Rex 293 SC cells without doxycycline (CellTiter-Glo, 72 hours); type: cell-based; settings: T-Rex 293 SC cells not exposed to doxycycline
# Description: (§2) The following types of cells were prepared for this experiment: (i) a T-Rex 293 cell line having increased expression of progesterone receptor isoform B protein due to exposure to doxycycline and (ii) a T-Rex 293 cell line lacking increased expression of progesterone receptor isoform B protein. Ability of the test compounds to inhibit proliferation of the foregoing cell types was evaluated according to the procedures set forth below.
# (§3) The doxycycline-inducible progesterone receptor isoform B protein expressing cell line was established using the following protocol: T-Rex 293 cells were purchased from Invitrogen (Cat #R71007) and transfected using Lipofectamine 2000 with the wild-type progesterone receptor B protein sequence cloned into the pcDNA4/TO vector. Transfected cells were selected using 400 μg/mL Zeocin (Invitrogen Cat #R25001). Following selection, single clones were raised and maintained in Dulbecco's Modified Eagle Medium (DMEM) supplemented with 10% w/w Tetracycline-free fetal bovine serum (FBS) and 250 μg/mL Zeocin. Clones were analyzed for expression of progesterone receptor isoform B protein in the presence and absence of 10 ng/mL doxycycline (Sigma Cat #D9891), and a single doxycycline-inducible clone (hereinafter “SC”) was selected for use in downstream assays.
# (§4) The SC cells were seeded on poly-D-lysine coated, black clear-bottom 384-well plates at 2500/well, in 25 μL Phenol Red Free Dulbecco's Modified Eagle Medium (DMEM) supplemented with 10% w/w charcoal-dextran treated fetal bovine serum (FBS) and 1% w/w pen-strep, with or without 10 ng/mL doxycycline. Pen-Strep is a commercially available mixture of penicillin G and streptomycin, which is used in mammalian cell culture media to prevent bacterial contamination. Phenol Red Free Dulbecco's Modified Eagle Medium (DMEM) supplemented with 10% w/w charcoal-dextran treated fetal bovine serum (FBS) and 1% w/w pen-strep, with or without 10 ng/mL doxycycline is herein referred to as Treatment Medium. Following seeding of cells in the plates, the plates were spun at 300×g for 30 seconds, then equilibrated to room temperature for 30 minutes, and then deposited in a humidified tissue culture incubator maintained at 37° C. with 5% CO2.
# (§5) At 24 hours after seeding of the cells, dilutions of test compound were prepared in DMSO and dissolved in Treatment Medium, to achieve a final DMSO concentration of 0.5% w/w, thereby providing the Test Compound Solution. A 25 μL aliquot of the Test Compound Solution was added to cells in the well plates. An equal volume of a solution containing DMSO and Treatment Medium was used as a negative control. Following treatment of cells with Test Compound Solution or said equal volume of a solution containing DMSO and Treatment Medium, the plates were spun at 300×g for 30 seconds, and then left in an incubator for 72 hours.
# (§6) At the end of the treatment duration, cell viability was quantified with CellTiter-Glo 2.0 reagent (Promega Cat #G9243). For this purpose, plates were equilibrated to room temperature for 30 minutes, and then 25 μL of CellTiter-Glo 2.0 reagent was added to cells in the plate wells. Plates were then agitated on a shaker for two minutes at 500 rpm and subsequently incubated at room temperature for 10 minutes. Following incubation, the plates were spun at 3000×g for 30 seconds, then sealed with an optical adhesive cover, and luminescence readings were measured with an EnVision Plate Reader (Perkin Elmer).
# (§7) Data was normalized using zero luminescence for baseline. A four-parameter non-linear regression curve fit was applied to dose-response data in GraphPad Prism data analysis software to determine the half-maximal growth inhibitory concentration (GI50) for each test compound.
# [3] = Cellular growth inhibition assay, T-Rex 293 SC cells with doxycycline (CellTiter-Glo, 72 hours); type: cell-based; settings: T-Rex 293 SC cells with doxycycline (increased progesterone receptor isoform B)
# Description: as §2, §3, §4, §5, §6, §7
# VCaP cells = test: Cellular growth inhibition assay for VCaP cells (CellTiter-Glo, 72 hours); type: cell-based, human; settings: Homo sapiens, VCaP, 72 h
# Method in brief: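 Luminescent viability signal after 72 h of compound exposure gave GI50 values by four-parameter nonlinear regression. Compounds were added in 0.5% DMSO to cells plated 24 h earlier at 5000/well in DMEM containing 10% FBS.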
# [4] = system: T-Rex 293 cell line SC3 cells having increased expression of androgen receptor protein due to exposure to doxycycline; test: Cellular growth inhibition assay, T-Rex 293 SC3 cells with doxycycline (CellTiter-Glo, 72 hours); type: cell-based; settings: 72 h, T-Rex 293 SC3 cells with increased androgen receptor expression due to doxycycline (10 ng/mL)
# Method in brief: as §1
# androgen receptor = target: T1, androgen receptor (Homo sapiens, UniProt P10275); test: Assay for binding affinity to androgen receptor ([3H]methyltrienolone radioligand, cell cytosol); settings: binding to the androgen receptor, Table 3
# T1 sequence (P10275 1-920 T878A): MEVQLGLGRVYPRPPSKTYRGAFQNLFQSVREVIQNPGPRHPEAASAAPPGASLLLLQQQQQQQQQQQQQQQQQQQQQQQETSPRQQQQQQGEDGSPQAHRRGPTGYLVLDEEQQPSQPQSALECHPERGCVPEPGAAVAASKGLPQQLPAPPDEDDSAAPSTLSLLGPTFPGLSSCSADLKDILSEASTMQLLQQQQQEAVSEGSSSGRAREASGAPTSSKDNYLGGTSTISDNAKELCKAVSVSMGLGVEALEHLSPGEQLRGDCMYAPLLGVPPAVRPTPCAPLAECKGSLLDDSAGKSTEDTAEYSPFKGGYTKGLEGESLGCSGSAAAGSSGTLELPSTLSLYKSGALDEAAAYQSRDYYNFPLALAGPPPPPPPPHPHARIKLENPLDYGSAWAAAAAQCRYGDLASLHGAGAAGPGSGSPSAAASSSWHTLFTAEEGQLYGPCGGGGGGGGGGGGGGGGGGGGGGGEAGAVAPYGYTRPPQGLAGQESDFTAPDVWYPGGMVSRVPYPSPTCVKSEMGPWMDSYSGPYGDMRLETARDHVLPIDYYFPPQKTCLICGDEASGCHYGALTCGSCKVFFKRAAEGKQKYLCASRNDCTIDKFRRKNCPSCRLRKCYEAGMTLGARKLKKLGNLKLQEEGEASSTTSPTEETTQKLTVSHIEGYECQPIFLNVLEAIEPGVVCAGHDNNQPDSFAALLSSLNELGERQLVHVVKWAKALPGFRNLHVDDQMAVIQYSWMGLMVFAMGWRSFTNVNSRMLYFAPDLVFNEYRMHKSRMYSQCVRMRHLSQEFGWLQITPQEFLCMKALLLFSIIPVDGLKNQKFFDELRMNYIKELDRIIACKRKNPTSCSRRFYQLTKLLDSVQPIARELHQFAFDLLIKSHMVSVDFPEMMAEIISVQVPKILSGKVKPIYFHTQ
# Description: Fractions of cell cytosol ([…]) were incubated for 24 hr at 4° C. with 1 nM [^3H]methyltrienolone in the absence or presence of the test compound in a buffer containing 25 mM Hepes-Tris (pH 7.4), 1 mM EDTA, 10 mM Na2MoO4, 2 mM DTT, 5 μM triamcinolone acetonide, and 10% glycerol. Nonspecific binding was determined in the presence of […] testosterone. Following incubation, the samples were filtered rapidly under vacuum through glass fiber filters (GF/B, Packard) presoaked with 0.3% PEI and rinsed several times with ice-cold 50 mM Tris-HCl using a 96-sample cell harvester (Unifilter, Packard). The filters were dried then counted for radioactivity in a scintillation counter (Topcount, Packard) using a scintillation cocktail (Microscint 0, Packard). The results are expressed as a percent inhibition of the control radioligand specific binding. The standard reference compound is testosterone, which is tested in each experiment at several concentrations to obtain a competition curve from which its IC50 is calculated.
GI50 (T47D cells),GI50 (VCaP cells),pKd (androgen receptor),SMILES,GI50 [1],GI50 [2],GI50 [3],GI50 [4]
< 500 nM,< 500 nM,,Cc1sc2c(c1C)C(c1ccc(CCC3CC4(CCCN(c5ccc(C(=O)N[C@H]6CC[C@H](Oc7ccc(C#N)c(Cl)c7)CC6)nn5)C4)C3)cc1)=N[C@@H](Cc1ncco1)c1nnc(C)n1-2 (stereo partly drawn) [I-208],< 500 nM,< 500 nM,< 500 nM,< 500 nM
,500 to 1500 nM,6.30 to 7.30,CCNC(=O)C[C@@H]1N=C(c2ccc(N3CCC(CN4CC(N(C)c5ccc(C(=O)N[C@H]6CC[C@H](Oc7ccc(C#N)c(Cl)c7)CC6)nn5)C4)CC3)cc2)c2c(sc(C)c2C)-n2c(C)nnc21 [I-68],> 3000 nM,,,> 3000 nM
,< 500 nM,> 7.30,CCNC(=O)C[C@@H]1N=C(c2ccc(N3CCC(N(C)C4CN(c5ccc(C(=O)N[C@H]6CC[C@H](Oc7ccc(C#N)c(Cl)c7)CC6)nn5)C4)CC3)cc2)c2c(sc(C)c2C)-n2c(C)nnc21 [I-63],500 to 1500 nM,,,< 500 nM
< 500 nM,< 500 nM,,Cc1sc2c(c1C)C(c1ccc(C3C[C@H]3CC3CCCN(c4ccc(C(=O)N[C@H]5CC[C@H](Oc6ccc(C#N)c(Cl)c6)CC5)nn4)C3)cc1)=N[C@@H](Cc1ncco1)c1nnc(C)n1-2 (stereo partly drawn) [I-204],< 500 nM,< 500 nM,< 500 nM,< 500 nM
< 500 nM,< 500 nM,,Cc1sc2c(c1C)C(c1ccc(CCN3CCCN(c4ccc(C(=O)N[C@H]5CC[C@H](Oc6ccc(C#N)c(Cl)c6)CC5)nn4)CC3)cc1)=N[C@@H](Cc1ncco1)c1nnc(C)n1-2 [I-128],< 500 nM,< 500 nM,< 500 nM,< 500 nM
> 3000 nM,1500 to 3000 nM,,Cc1sc2c(c1C)C(c1ccc(C3C[C@@H]3CC3CCCN(c4ccc(C(=O)N[C@H]5CC[C@H](Oc6ccc(C#N)c(Cl)c6)CC5)nn4)C3)cc1)=N[C@@H](Cc1ncco1)c1nnc(C)n1-2 (stereo partly drawn) [I-203],500 to 1500 nM,500 to 1500 nM,500 to 1500 nM,< 500 nM

# The remaining lines, values behind:
SMILES,GI50 (T47D cells),GI50 (VCaP cells),pKd (androgen receptor),GI50 [1],GI50 [2],GI50 [3],GI50 [4]
CCNC(=O)C[C@@H]1N=C(c2ccc(OCCN3CCN(c4ccc(C(=O)N[C@H]5CC[C@H](Oc6ccc(C#N)c(Cl)c6)CC5)nn4)CC3)cc2)c2c(sc(C)c2C)-n2c(C)nnc21 [I-25],< 500 nM,< 500 nM,,500 to 1500 nM,500 to 1500 nM,< 500 nM,< 500 nM
CCNC(=O)C[C@@H]1N=C(c2ccc(OCCOCCOCCOC3CCN(c4ccc(C(=O)N[C@H]5CC[C@H](Oc6ccc(C#N)c(Cl)c6)CC5)nn4)CC3)cc2)c2c(sc(C)c2C)-n2c(C)nnc21 [I-9],,< 500 nM,> 7.30,500 to 1500 nM,,,< 500 nM
CCNC(=O)C[C@@H]1N=C(c2ccc(N3CCN(CC4CCN(c5ccc(C(=O)N[C@H]6CC[C@H](Oc7ccc(C#N)c(Cl)c7)CC6)nn5)CC4)CC3)cc2)c2c(sc(C)c2C)-n2c(C)nnc21 [I-28],< 500 nM,< 500 nM,,500 to 1500 nM,< 500 nM,< 500 nM,< 500 nM
CCNC(=O)C[C@@H]1N=C(c2ccc(OCCC3CCN(c4ccc(C(=O)N[C@H]5CC[C@H](Oc6ccc(C#N)c(Cl)c6)CC5)nn4)CC3)cc2)c2c(sc(C)c2C)-n2c(C)nnc21 [I-13],< 500 nM,< 500 nM,,< 500 nM,< 500 nM,< 500 nM,< 500 nM
